# According to the NIST ThermoML archive (doi:10.1016/j.jct.2015.07.044):
# Numbers after ± are expanded uncertainties.
# Test: excess molar enthalpy (molar enthalpy of mixing); xn = mol fraction of the nth substance listed
# Conditions: 298.15 K, 100 kPa, Liquid, Isoperibol calorimetry
structure (smiles),measurement,setting,value
CCCOCC(C)O (stereo not given) [1-propoxy-2-propanol] + O,excess molar enthalpy,x1 = 0.00199,-0.012 ± 0.00239 kcal/mol
same,excess molar enthalpy,x1 = 0.00509,-0.0263 ± 0.00239 kcal/mol
same,excess molar enthalpy,x1 = 0.00988,-0.0454 ± 0.00239 kcal/mol
same,excess molar enthalpy,x1 = 0.01524,-0.0693 ± 0.00239 kcal/mol
same,excess molar enthalpy,x1 = 0.02082,-0.0765 ± 0.00239 kcal/mol
same,excess molar enthalpy,x1 = 0.02573,-0.0884 ± 0.00478 kcal/mol
same,excess molar enthalpy,x1 = 0.0299,-0.11 ± 0.00478 kcal/mol
same,excess molar enthalpy,x1 = 0.03983,-0.12 ± 0.00478 kcal/mol
same,excess molar enthalpy,x1 = 0.05248,-0.124 ± 0.00478 kcal/mol
same,excess molar enthalpy,x1 = 0.09463,-0.141 ± 0.00478 kcal/mol
same,excess molar enthalpy,x1 = 0.09856,-0.141 ± 0.00478 kcal/mol
same,excess molar enthalpy,x1 = 0.1198,-0.146 ± 0.00717 kcal/mol
same,excess molar enthalpy,x1 = 0.1284,-0.146 ± 0.00717 kcal/mol
same,excess molar enthalpy,x1 = 0.1504,-0.148 ± 0.00717 kcal/mol
same,excess molar enthalpy,x1 = 0.1711,-0.148 ± 0.00717 kcal/mol
same,excess molar enthalpy,x1 = 0.2286,-0.148 ± 0.00717 kcal/mol
same,excess molar enthalpy,x1 = 0.297,-0.141 ± 0.00478 kcal/mol
same,excess molar enthalpy,x1 = 0.3791,-0.131 ± 0.00478 kcal/mol
same,excess molar enthalpy,x1 = 0.4088,-0.129 ± 0.00478 kcal/mol
same,excess molar enthalpy,x1 = 0.4372,-0.124 ± 0.00478 kcal/mol
same,excess molar enthalpy,x1 = 0.494,-0.105 ± 0.00478 kcal/mol
same,excess molar enthalpy,x1 = 0.5971,-0.0837 ± 0.00478 kcal/mol
same,excess molar enthalpy,x1 = 0.6988,-0.0669 ± 0.00239 kcal/mol
same,excess molar enthalpy,x1 = 0.7467,-0.0598 ± 0.00239 kcal/mol
same,excess molar enthalpy,x1 = 0.8056,-0.0478 ± 0.00239 kcal/mol
same,excess molar enthalpy,x1 = 0.8534,-0.0382 ± 0.00239 kcal/mol
same,excess molar enthalpy,x1 = 0.8713,-0.0335 ± 0.00239 kcal/mol
same,excess molar enthalpy,x1 = 0.9051,-0.0263 ± 0.00239 kcal/mol
same,excess molar enthalpy,x1 = 0.9205,-0.0215 ± 0.00239 kcal/mol
same,excess molar enthalpy,x1 = 0.9499,-0.0143 ± 0.00239 kcal/mol
